This is an account of results in publication PMC4852132 (Biochemistry, 2016).

The target of data set [1] is T1, E1p-ec (Escherichia coli, UniProt P0AFG8). As to conditions: read-out: Ki,AcPhi, reversible tight-binding inhibitor; cited from earlier work.
The target of data set [2] is T2, E1p-h (Homo sapiens, UniProt P08559+P11177).
T2 sequence (P08559 30-390): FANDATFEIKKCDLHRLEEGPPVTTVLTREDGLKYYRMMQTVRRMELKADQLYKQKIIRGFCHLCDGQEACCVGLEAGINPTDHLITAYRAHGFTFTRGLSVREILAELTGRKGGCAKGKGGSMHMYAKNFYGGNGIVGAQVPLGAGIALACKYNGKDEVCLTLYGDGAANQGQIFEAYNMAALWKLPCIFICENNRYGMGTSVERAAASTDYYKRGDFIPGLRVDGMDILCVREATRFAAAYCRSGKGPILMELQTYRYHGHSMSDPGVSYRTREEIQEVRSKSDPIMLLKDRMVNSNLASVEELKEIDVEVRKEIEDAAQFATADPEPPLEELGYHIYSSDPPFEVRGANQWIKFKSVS
T2 sequence (P11177 31-359): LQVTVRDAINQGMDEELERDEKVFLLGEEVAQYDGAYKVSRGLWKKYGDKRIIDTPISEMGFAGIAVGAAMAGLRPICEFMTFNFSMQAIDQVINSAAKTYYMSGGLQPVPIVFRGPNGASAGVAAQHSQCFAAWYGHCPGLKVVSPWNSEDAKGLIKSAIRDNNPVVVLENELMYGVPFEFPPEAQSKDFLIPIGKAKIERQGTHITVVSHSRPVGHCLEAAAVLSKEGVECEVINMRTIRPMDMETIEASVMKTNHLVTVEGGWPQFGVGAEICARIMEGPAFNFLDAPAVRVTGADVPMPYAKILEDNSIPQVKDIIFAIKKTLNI
Kind of data set: CD titration of E1p-h by acetylphosphinate. The conditions noted are these: read-out: Kd,AcPhi. The data set is classed as binding.

The target of data set [3] is T1, E1p-ec. As to conditions: read-out: Kd,AcPhi; E1p-ec with ThDP; cited from earlier work.
The target of data set [4] is T1, E1p-ec. Kind of data set: CD titration of E1p-ec by acetylphosphinate. The data set is classed as binding. As to conditions: for Kd: read-out: Kd,AcPhi.
Data set [5] deals with T2, E1p-h. The conditions noted are these: read-out: Ki,AcPhi; cited from earlier work.
Data set [6] deals with DXPS (Escherichia coli, UniProt P77488). Kind of data set: CD titration of apo-DXPS with ThTTDP. The data set is classed as binding. The conditions noted are these: for Kd: read-out: Kd,ThTTDP, CD titration, CD331.
The nature of data set [7]: UV spectroscopic determination of the pKa for N1-protonated bacimethrin. It is filed as physicochemical. As to conditions: aqueous triple buffer.
Setting [8] is: in the presence of 10 µM MeOThDP.

Like-named read-outs stand apart in the source and are kept apart here.

T1 sequence (P0AFG8 2-887 limits assumed): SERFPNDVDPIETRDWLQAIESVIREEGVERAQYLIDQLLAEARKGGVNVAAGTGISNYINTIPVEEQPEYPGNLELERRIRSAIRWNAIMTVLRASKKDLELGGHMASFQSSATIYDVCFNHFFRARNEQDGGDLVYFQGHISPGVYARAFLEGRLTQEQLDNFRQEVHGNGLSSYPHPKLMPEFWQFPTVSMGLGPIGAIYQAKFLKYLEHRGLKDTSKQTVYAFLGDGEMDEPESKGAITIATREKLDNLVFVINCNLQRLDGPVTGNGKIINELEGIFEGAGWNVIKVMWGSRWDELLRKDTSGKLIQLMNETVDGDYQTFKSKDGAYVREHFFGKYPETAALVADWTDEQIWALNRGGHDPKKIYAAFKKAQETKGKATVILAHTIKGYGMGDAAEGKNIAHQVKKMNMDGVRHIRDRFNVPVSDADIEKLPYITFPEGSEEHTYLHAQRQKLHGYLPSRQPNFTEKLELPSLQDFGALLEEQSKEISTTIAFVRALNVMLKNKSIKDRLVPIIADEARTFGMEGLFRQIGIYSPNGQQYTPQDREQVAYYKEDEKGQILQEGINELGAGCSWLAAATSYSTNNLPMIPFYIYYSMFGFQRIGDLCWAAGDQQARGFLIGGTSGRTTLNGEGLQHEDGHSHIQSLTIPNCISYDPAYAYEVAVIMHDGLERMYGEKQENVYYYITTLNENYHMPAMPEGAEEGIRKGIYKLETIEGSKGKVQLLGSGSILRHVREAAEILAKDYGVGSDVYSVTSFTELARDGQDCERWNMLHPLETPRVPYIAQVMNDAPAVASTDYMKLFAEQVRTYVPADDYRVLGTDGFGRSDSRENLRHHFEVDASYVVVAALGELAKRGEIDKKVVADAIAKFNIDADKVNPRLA
Sequence of DXPS (P77488 whole entry): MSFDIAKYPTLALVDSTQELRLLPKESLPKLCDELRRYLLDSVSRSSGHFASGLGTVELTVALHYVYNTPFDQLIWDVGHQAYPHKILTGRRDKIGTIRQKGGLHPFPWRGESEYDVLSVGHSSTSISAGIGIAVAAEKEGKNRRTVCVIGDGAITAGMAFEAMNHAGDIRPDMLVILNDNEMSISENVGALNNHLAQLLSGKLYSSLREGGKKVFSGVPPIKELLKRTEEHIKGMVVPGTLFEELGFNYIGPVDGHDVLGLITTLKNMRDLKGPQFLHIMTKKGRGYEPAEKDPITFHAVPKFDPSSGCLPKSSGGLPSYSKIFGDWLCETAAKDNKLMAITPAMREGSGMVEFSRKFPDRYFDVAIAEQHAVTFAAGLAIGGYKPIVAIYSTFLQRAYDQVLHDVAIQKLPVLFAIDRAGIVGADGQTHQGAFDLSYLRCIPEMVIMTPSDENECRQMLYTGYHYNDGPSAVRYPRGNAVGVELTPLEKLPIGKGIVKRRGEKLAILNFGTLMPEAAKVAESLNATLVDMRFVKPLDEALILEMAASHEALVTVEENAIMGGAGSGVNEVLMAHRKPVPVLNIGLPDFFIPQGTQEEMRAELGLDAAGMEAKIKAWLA

By Ki is commonly meant the dissociation constant of the complex between target and ligand, obtained from inhibition or displacement. What is called Kd is the constant that tells how readily two partners part at equilibrium. Turning to `CC(=O)[PH](=O)[O-].[Na+]` [AcPhi, acetylphosphinic acid sodium salt], the inhibition constant (Ki) in data set [1] was 760 nM; in data set [5] it was 14 nM. Moreover, the Kd in data set [2] (E1p-h complexed with MeOThDP) is 1360 nM; in data set [2] (E1p-h complexed with ThDP, unpublished data) it was 43 nM; in data set [3] it was 62 nM; in data set [4] (E1p-ec complexed with 0.20 mM MeOThDP, CD303), 1880 nM; in data set [4] (E1p-ec complexed with 0.20 mM ThDP, CD319), 36 nM. In data set [4] (E1p-ec complexed with ThDP), the “[AcPhi]/[E1p-ec] molar ratio at maximal CD intensity” value is reported as 1/1.
Take `Cc1ncc(Cn2c(C)c(CCOP(=O)(O)OP(=O)(O)O)sc2=S)c(N)n1` [ThTTDP, Thiamin 2-thiothiazolone diphosphate]: in data set [6] (setting [8]), the “[ThTTDP]/[DXPS active centers] molar ratio at saturation” value was 2.6 and the Kd is 600 ± 140 nM. In data set [6] (no MeOThDP), the “[ThTTDP]/[DXPS active centers] molar ratio at saturation” value turned out to be 1.26 and the Kd came to 390 ± 100 nM.
As usually defined, the pKa is the pH at which an ionisable group is half protonated. A low value points to a group that gives up its proton readily. Consider `COc1ncc(CO)c(N)n1` [bacimethrin, 4-amino-5-hydroxymethyl-2-methoxypyrimidine], for which the pKa in data set [7] came to 5.32 ± 0.03.
